Experimental data reported in ChEMBL document CHEMBL1138818, “Design and synthesis of cyclic urea compounds: a pharmacological study for retinoidal activity” (2004).
Activity calls are given as the source filed them. No cut-off for these calls is given here.

Test system: HL-60
Test: Effective concentration required for induction of differentiation of HL-60 cells into mature granulocytes.( >10e-6= slight activity at 10e-6)
Format: functional
Settings: Homo sapiens, read-out: ED50 (the source's name)

Q: For `CC1(C)CCC(C)(C)c2cc(NC(=O)Nc3ccc(C(=O)O)cc3)ccc21`, which EC50 is on record?
A: The EC50 was > 10000 nM.

Test system: HL-60
Test: Effective concentration required for induction of differentiation of HL-60 cells into mature granulocytes. IA = No activity at E-6
Format: functional, cell-based
Settings: Homo sapiens

Q: `CC(C)(C)c1ccc(N2CCN(c3ccc(C(=O)O)cc3)C2=O)cc1` was tested. Which ED50 did it give?
A: Its ED50 is “inactive”.

Q: How did the ED50 turn out when `O=C(O)c1ccc(N2CCN(c3ccccc3)C2=O)cc1` was run?
A: Its ED50 is “inactive”.

Q: `CC(C)(C)c1ccc(N2CCCN(c3ccc(C(=O)O)cc3)C2=O)cc1` was tested. Which ED50 did it give?
A: The ED50 was “inactive”.

Q: With `CC1(C)CCC(C)(C)c2cc(N3CCCN(c4ccc(C(=O)O)cc4)C3=O)ccc21` as the compound, how does the ED50 read?
A: The ED50 was “inactive”.

Q: With `O=C(O)c1ccc(N2CCCN(c3ccccc3)C2=O)cc1` as the compound, how does the ED50 read?
A: The ED50 was “inactive”.

Test system: HL-60
Test: Effective concentration required for induction of differentiation of HL-60 cells into mature granulocytes.
Format: functional
Settings: Homo sapiens, read-out: ED50 (the source's name)

Q: Which EC50 does the source give for `CC1(C)CCC(C)(C)c2cc(NC(=O)c3ccc(C(=O)O)cc3)ccc21` [TAMIBAROTENE] here?
A: The EC50 was 0.8 nM.

Q: Which EC50 does the source give for `CC(C)(C)c1cc(N2CCCN(c3ccc(C(=O)O)cc3)C2=O)cc(C(C)(C)C)c1` here?
A: Its EC50 is 490 nM.

Q: `CC1=C(/C=C/C(C)=C/C=C/C(C)=C/C(=O)O)C(C)(C)CCC1` [TRETINOIN] was tested. Which EC50 did it give?
A: The EC50 was 2.4 nM.

Q: With `CC(C)(C)c1cc(N2CCN(c3ccc(C(=O)O)cc3)C2=O)cc(C(C)(C)C)c1` as the compound, how does the EC50 read?
A: The EC50 was 8.3 nM.

Q: How did the EC50 turn out when `CC1(C)CCC(C)(C)c2cc(N3CCN(c4ccc(C(=O)O)cc4)C3=O)ccc21` was run?
A: Its EC50 is 120 nM.
